Reference: US20070249590A1, “Substituted indolo[2,3-a]pyrrolo[3,4-c]carbazole compounds useful in treating kinase disorders” (priority 2005, published 2007)

Molecular target: T1, JAK3 (JH1 and JH2 domain) (Homo sapiens, UniProt P52333)
T1 sequence (P52333 521-1111 limits assumed): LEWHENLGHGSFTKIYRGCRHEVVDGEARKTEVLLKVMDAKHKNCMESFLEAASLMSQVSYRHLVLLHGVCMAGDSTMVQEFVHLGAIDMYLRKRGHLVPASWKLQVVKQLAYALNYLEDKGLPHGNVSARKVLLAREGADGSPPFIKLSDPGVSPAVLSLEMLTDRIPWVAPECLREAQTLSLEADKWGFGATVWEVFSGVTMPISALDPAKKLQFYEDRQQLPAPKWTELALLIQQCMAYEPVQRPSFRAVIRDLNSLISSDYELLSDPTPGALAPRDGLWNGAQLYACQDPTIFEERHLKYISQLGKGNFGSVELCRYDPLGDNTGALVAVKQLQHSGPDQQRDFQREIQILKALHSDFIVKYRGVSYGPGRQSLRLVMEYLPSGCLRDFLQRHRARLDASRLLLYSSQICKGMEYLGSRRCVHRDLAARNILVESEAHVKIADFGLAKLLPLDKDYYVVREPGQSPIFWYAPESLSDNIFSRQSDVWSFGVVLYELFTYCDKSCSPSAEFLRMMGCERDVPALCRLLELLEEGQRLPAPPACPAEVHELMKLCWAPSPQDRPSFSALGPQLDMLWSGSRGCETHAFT
Experiment: JAK3 Kinase Assay (ELISA of peptide substrate phosphorylation)
Type: biochemical
Conditions: purified JAK3 enzyme, 10 μM ATP, biotinylated peptide substrate, 1 hour at room temperature
How it was run: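 Sf21-baculovirus-expressed JAK3 (JH1+JH2), glutathione-bead purified, with biotinylated peptide substrate (in buffer containing 10 μM ATP) in HEPES pH 7.5/MgCl2/DTT, 1 h RT. Product was captured on Neutravidin, detected with HRP anti-phosphotyrosine (PY99)/TMB, OD 450/650 nm. Triplicate 16-point half-log series from 200 μM gave IC50; otherwise % inhibition at 1 μM.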

Question: `CN(C)CCSCc1ccc2c(c1)c1c3c(c4c5ccccc5n5c4c1n2CC(O)C(O)C5)CNC3=O` (stereo not shown) [Cpd 199, 3-[(2-dimethylamino-ethyl)thiomethyl]-12,13-(2,3-dihydroxy-butan-1,4-yl)-6,7,12,13-tetrahydro-5-oxo-5H-indolo[2,3-a]pyrrolo[3,4-c]carbazole] was tested. Which IC50 did it give?
Answer: Its IC50 is 309 nM.

Question: How did the IC50 turn out when `O=C1NCc2c1c1c3cc(/C=N/NC4=NCCN4)ccc3n3c1c1c2c2ccccc2n1CC(O)C(O)C3` (stereo not shown) [Cpd 200, 3-[(4,5-dihydro-1H-imidazol-2-yl)hydrazomethylene]-12,13-(2,3-dihydroxy-butan-1,4-yl)-6,7,12,13-tetrahydro-5-oxo-5H-indolo[2,3-a]pyrrolo[3,4-c]carbazole] was run?
Answer: Its IC50 is 19 nM.

Question: For `O=C1NCc2c1c1c3cc(/C=C/Cn4ccnc4)ccc3n3c1c1c2c2ccccc2n1CC(O)C(O)C3` (stereo not shown) [Cpd 201], which IC50 is on record?
Answer: Its IC50 is 24 nM.

Question: For `O=C1NCc2c1c1c3cc(Cn4ccnc4)ccc3n3c1c1c2c2ccccc2n1CC(O)C(O)C3` (stereo not shown) [Cpd 202, 3-(imidazol-1-ylmethyl)-12,13-(2,3-dihydroxy-butan-1,4-yl)-6,7,12,13-tetrahydro-5-oxo-5H-indolo[2,3-a]pyrrolo[3,4-c]carbazole], which IC50 is on record?
Answer: The IC50 was 103 nM.

Question: Which IC50 does the source give for `O=C1NCc2c1c1c3cc(OCCN4CCOCC4)ccc3n3c1c1c2c2ccccc2n1CC(O)C(O)C3` (stereo not shown) [Cpd 203, 3-(2-morpholin-4-yl-ethoxy)-12,13-(2,3-dihydroxy-butan-1,4-yl)-6,7,12,13-tetrahydro-5-oxo-5H-indolo[2,3-a]pyrrolo[3,4-c]carbazole] here?
Answer: Its IC50 is 618 nM.

Question: With `CN1CCC(Nc2ccc3c(c2)c2c4c(c5c6ccccc6n6c5c2n3CC(O)C(O)C6)CNC4=O)CC1` (stereo not shown) [Cpd 204, 3-[(1-methyl-piperidin-4-yl)amino]-12,13-(2,3-dihydroxy-butan-1,4-yl)-6,7,12,13-tetrahydro-5-oxo-5H-indolo[2,3-a]pyrrolo[3,4-c]carbazole] as the compound, how does the IC50 read?
Answer: Its IC50 is 169 nM.

Question: How did the IC50 turn out when `CN1CCN(CC(=O)Nc2ccc3c(c2)c2c4c(c5c6ccccc6n6c5c2n3CC(O)C(O)C6)CNC4=O)CC1` (stereo not shown) [Cpd 205, 3-{[(4-methyl-piperazin-1-yl)methylcarbonyl]amino}-12,13-(2,3-dihydroxy-butan-1,4-yl)-6,7,12,13-tetrahydro-5-oxo-5H-indolo[2,3-a]pyrrolo[3,4-c]carbazole] was run?
Answer: The IC50 was 42 nM.

Question: `O=C1NCc2c1c1c3cc(NC4=NCCN4)ccc3n3c1c1c2c2ccccc2n1CC(O)C(O)C3` (stereo not shown) [Cpd 206] was tested. Which IC50 did it give?
Answer: Its IC50 is 49 nM.

Question: For `O=Cc1ccc2c(c1)c1c3c(c4c5cc(Br)ccc5n5c4c1n2CC(CO)C5)C(=O)NC3` (stereo not shown) [Cpd 207, 3-bromo-9-formyl-12,13-(2-hydroxymethyl-propan-1,3-yl)-6,7,12,13-tetrahydro-5-oxo-5H-indolo[2,3-a]pyrrolo[3,4-c]carbazole], which IC50 is on record?
Answer: The IC50 was 13 nM.

Question: For `O=C1NCc2c1c1c3cc(Br)ccc3n3c1c1c2c2cc(CN4CCOCC4)ccc2n1CC(CO)C3` (stereo not shown) [Cpd 208, 3-bromo-9-(morpholin-4-ylmethyl)-12,13-(2-hydroxymethyl-propan-1,3-yl)-6,7,12,13-tetrahydro-5-oxo-5H-indolo[2,3-a]pyrrolo[3,4-c]carbazole], which IC50 is on record?
Answer: Its IC50 is 3130 nM.

Question: Which IC50 does the source give for `CC(C)OCc1ccc2c(c1)c1c3c(c4c5cc(Br)ccc5n5c4c1n2CC(CO)C5)C(=O)NC3` (stereo not shown) [Cpd 209, 3-bromo-9-(isopropoxymethyl)-12,13-(2-hydroxymethyl-propan-1,3-yl)-6,7,12,13-tetrahydro-5-oxo-5H-indolo[2,3-a]pyrrolo[3,4-c]carbazole] here?
Answer: Its IC50 is 70 nM.

Question: `CC(C)OCc1ccc2c(c1)c1c3c(c4c5cc(COC(C)C)ccc5n5c4c1n2CC(CO)C5)C(=O)NC3` (stereo not shown) [Cpd 210, 3,9-bis-(isopropoxymethyl)-12,13-(2-hydroxymethyl-propan-1,3-yl)-6,7,12,13-tetrahydro-5-oxo-5H-indolo[2,3-a]pyrrolo[3,4-c]carbazole] was tested. Which IC50 did it give?
Answer: Its IC50 is 1050 nM.

Question: With `CC(C)OCc1ccc2c(c1)c1c3c(c4c5ccccc5n5c4c1n2CC(CO)C5)CNC3=O` (stereo not shown) [Cpd 211, 9-(isopropoxymethyl)-12,13-(2-hydroxymethyl-propan-1,3-yl)-6,7,12,13-tetrahydro-5-oxo-5H-indolo[2,3-a]pyrrolo[3,4-c]carbazole] as the compound, how does the IC50 read?
Answer: The IC50 was 107 nM.

Question: With `O=C1NCc2c1c1c3ccccc3n3c1c1c2c2cc(CO)ccc2n1CC(CO)C3` (stereo not shown) [Cpd 212, 9-hydroxymethyl-12,13-(2-hydroxymethyl-propan-1,3-yl)-6,7,12,13-tetrahydro-5-oxo-5H-indolo[2,3-a]pyrrolo[3,4-c]carbazole] as the compound, how does the IC50 read?
Answer: Its IC50 is 3 nM.

Question: For `CC(C)NCc1ccc2c(c1)c1c3c(c4c5ccccc5n5c4c1n2CC(CO)C5)CNC3=O` (stereo not shown) [Cpd 213, 3-(isopropylaminomethyl)-12,13-(2-hydroxymethyl-propan-1,3-yl)-6,7,12,13-tetrahydro-5-oxo-5H-indolo[2,3-a]pyrrolo[3,4-c]carbazole], which IC50 is on record?
Answer: The IC50 was 241 nM.

Question: How did the IC50 turn out when `O=C1NCc2c1c1c3cc(CN4CCOCC4)ccc3n3c1c1c2c2cc(CN4CCOCC4)ccc2n1CC(CO)C3` (stereo not shown) [Cpd 214, 3,9-bis-(morpholin-4-ylmethyl)-12,13-(2-hydroxymethyl-propan-1,3-yl)-6,7,12,13-tetrahydro-5-oxo-5H-indolo[2,3-a]pyrrolo[3,4-c]carbazole] was run?
Answer: Its IC50 is over 50000 nM.

Question: How did the IC50 turn out when `O=C1NCc2c1c1c3cc(CO)ccc3n3c1c1c2c2cc(CO)ccc2n1CC(CO)C3` (stereo not shown) [Cpd 215, 3,9-bis-(hydroxymethyl)-12,13-(2-hydroxymethyl-propan-1,3-yl)-6,7,12,13-tetrahydro-5-oxo-5H-indolo[2,3-a]pyrrolo[3,4-c]carbazole] was run?
Answer: The IC50 was 8 nM.

Question: Which IC50 does the source give for `O=C1NCc2c1c1c3cc(/C=C/c4ccccn4)ccc3n3c1c1c2c2ccccc2n1CC(CO)C3` (stereo not shown) [Cpd 216, 3-[(2E)-2-pyridin-2-yl-ethenyl]-12,13-(2-hydroxymethyl-propan-1,3-yl)-6,7,12,13-tetrahydro-5-oxo-5H-indolo[2,3-a]pyrrolo[3,4-c]carbazole] here?
Answer: Its IC50 is 310 nM.

Question: Which IC50 does the source give for `Cc1ncsc1/C=C/c1ccc2c(c1)c1c3c(c4c5ccccc5n5c4c1n2CC(CO)C5)CNC3=O` (stereo not shown) [Cpd 217, 3-[(2E)-2-(4-methyl-thiazol-5-yl)ethenyl]-12,13-(2-hydroxymethyl-propan-1,3-yl)-6,7,12,13-tetrahydro-5-oxo-5H-indolo[2,3-a]pyrrolo[3,4-c]carbazole] here?
Answer: The IC50 was 592 nM.

Question: Which IC50 does the source give for `O=C(O)/C=C/c1ccc2c(c1)c1c3c(c4c5ccccc5n5c4c1n2CC(CO)C5)CNC3=O` (stereo not shown) [Cpd 218, 3-[(2E)-2-carboxy-ethenyl]-12,13-(2-hydroxymethyl-propan-1,3-yl)-6,7,12,13-tetrahydro-5-oxo-5H-indolo[2,3-a]pyrrolo[3,4-c]carbazole] here?
Answer: The IC50 was 686 nM.

Question: How did the IC50 turn out when `O=C1NCc2c1c1c3cc(/C=C/Cn4ccnc4)ccc3n3c1c1c2c2ccccc2n1CC(CO)C3` (stereo not shown) [Cpd 219, 3-[(1E)-3-1H-imidazol-1-yl-prop-1-en-1-yl]-12,13-(2-hydroxymethyl-propan-1,3-yl)-6,7,12,13-tetrahydro-5-oxo-5H-indolo[2,3-a]pyrrolo[3,4-c]carbazole] was run?
Answer: Its IC50 is 14 nM.

Question: With `O=C1NCc2c1c1c3cc(/C=C/n4ccnc4)ccc3n3c1c1c2c2ccccc2n1CC(CO)C3` (stereo not shown) [Cpd 220, 3-[(2E)-2-1H-imidazol-1-yl-ethenyl]-12,13-(2-hydroxymethyl-propan-1,3-yl)-6,7,12,13-tetrahydro-5-oxo-5H-indolo[2,3-a]pyrrolo[3,4-c]carbazole] as the compound, how does the IC50 read?
Answer: The IC50 was 90 nM.

Question: How did the IC50 turn out when `O=C1NCc2c1c1c3cc(/C=C/CNC4=NCCN4)ccc3n3c1c1c2c2ccccc2n1CC(CO)C3` (stereo not shown) [Cpd 221, 3-{(1E)-3-[(4,5-dihydro-1H-imidazol-2-yl)amino]-prop-1-en-1-yl}-12,13-(2-hydroxymethyl-propan-1,3-yl)-6,7,12,13-tetrahydro-5-oxo-5H-indolo[2,3-a]pyrrolo[3,4-c]carbazole] was run?
Answer: Its IC50 is 31 nM.

Question: For `CN(C)CCNC(=O)/C=C/c1ccc2c(c1)c1c3c(c4c5ccccc5n5c4c1n2CC(CO)C5)CNC3=O` (stereo not shown) [Cpd 222, 3-{(2E)-2-[(2-dimethylamino-ethyl)carbamoyl]ethenyl}-12,13-(2-hydroxymethyl-propan-1,3-yl)-6,7,12,13-tetrahydro-5-oxo-5H-indolo[2,3-a]pyrrolo[3,4-c]carbazole], which IC50 is on record?
Answer: The IC50 was 237 nM.

Question: Which IC50 does the source give for `O=C1NCc2c1c1c3cc(/C=C/Cn4ccnc4)ccc3n3c1c1c2c2cc(CO)ccc2n1CC(CO)C3` (stereo not shown) [Cpd 223, 3-[(1E)-3-1H-imidazol-1-yl-prop-1-en-1-yl]-9-hydroxymethyl-12,13-(2-hydroxymethyl-propan-1,3-yl)-6,7,12,13-tetrahydro-5-oxo-5H-indolo[2,3-a]pyrrolo[3,4-c]carbazole] here?
Answer: The IC50 was 3 nM.
